Assay results from patent publication US9145372B2, “Pyridazine derivatives, compositions and methods for treating cognitive impairment” (AGENEBIO, INC., priority 2010, dated 2015).

Assays:
[1] = target: T1, GABAA α5β3γ2 subtype receptor (Homo sapiens, UniProt P18507+P31644); assay: GABA-gated Cl- current potentiation in Xenopus oocytes expressing GABAA α5β3γ2 (TEVC); assay type: cell-based; conditions: for positive allosteric modulation of GABA at GABAA α5 receptors: concentration response 0.01-100 μM, FIGS. 1(A)-(D); for activation at 1 µM: read-out: GABA α5 EC50 % potentiation
T1 construct: myc-His (vector-encoded); expressed in transfected cells; host or cells: Xenopus laevis oocytes injected with cDNAs
T1 sequence (P31644 32-462): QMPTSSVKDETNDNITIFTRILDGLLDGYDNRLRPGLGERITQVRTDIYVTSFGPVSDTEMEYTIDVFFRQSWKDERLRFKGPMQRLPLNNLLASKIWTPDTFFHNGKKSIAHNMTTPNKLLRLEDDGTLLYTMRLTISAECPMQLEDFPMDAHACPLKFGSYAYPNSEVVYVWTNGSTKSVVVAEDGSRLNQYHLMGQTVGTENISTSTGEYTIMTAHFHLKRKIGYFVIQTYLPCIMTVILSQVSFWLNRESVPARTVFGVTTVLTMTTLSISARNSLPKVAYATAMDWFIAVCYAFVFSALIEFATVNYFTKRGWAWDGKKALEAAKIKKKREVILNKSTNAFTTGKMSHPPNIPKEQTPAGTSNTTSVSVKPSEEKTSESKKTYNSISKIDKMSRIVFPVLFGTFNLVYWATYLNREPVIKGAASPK
T1 sequence (P28472 26-473 partner): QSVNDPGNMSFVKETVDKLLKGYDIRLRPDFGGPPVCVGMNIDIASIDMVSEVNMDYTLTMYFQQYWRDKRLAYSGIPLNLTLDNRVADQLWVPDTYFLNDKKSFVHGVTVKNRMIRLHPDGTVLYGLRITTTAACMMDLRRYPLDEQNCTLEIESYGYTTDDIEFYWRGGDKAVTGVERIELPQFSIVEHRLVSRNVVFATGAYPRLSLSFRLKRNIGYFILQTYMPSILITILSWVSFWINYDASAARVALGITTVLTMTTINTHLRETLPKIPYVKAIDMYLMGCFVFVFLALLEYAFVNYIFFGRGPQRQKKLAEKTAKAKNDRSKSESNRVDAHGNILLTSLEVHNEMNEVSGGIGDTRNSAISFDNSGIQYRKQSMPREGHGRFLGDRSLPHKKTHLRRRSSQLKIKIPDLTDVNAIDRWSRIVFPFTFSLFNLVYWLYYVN
T1 sequence (P18507 40-467 limits assumed): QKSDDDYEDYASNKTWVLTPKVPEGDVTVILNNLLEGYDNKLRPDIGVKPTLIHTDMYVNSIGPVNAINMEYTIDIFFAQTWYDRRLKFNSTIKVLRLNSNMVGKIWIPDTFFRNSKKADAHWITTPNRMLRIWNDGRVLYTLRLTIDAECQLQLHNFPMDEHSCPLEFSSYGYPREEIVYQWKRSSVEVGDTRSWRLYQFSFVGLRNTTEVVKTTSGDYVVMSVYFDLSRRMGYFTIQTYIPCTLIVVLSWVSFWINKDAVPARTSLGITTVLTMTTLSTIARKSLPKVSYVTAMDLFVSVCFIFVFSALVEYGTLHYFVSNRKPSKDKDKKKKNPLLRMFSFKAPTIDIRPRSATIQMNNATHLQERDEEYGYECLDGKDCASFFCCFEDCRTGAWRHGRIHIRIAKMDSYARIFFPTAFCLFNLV
Text: (§1) Step 1: Establish Clones of GABAAR Subunits (α5, β3, γ2, α1, α2 and α3) and Prepare the Corresponding cRNAs: Human clones of GABAA-R α5, β3, γ2, α1, α2 and α3 subunits are obtained from commercial resources (e.g., OriGene, http://www.origene.com and Genescript, http://www.genescript.com). These clones are engineered into pRC, pCDM, pcDNA, and pBluescript KSM vector (for oocyte expression) or other equivalent expression vectors. Conventional transfection agents (e.g., FuGene, Lipofectamine 2000, or others) are used to transiently transfect host cells.
Adult female Xenopus laevis frogs were purchased from Nasco (Fort Atkinson, Wis.). […] All chemicals used were of reagent grade. […] Stock solutions of Diazepam, Flumazenil and compounds of the present invention were prepared in dimethyl sulfoxide (DMSO) and then diluted to an appropriate concentration with the extracellular solution just before use. To avoid adverse effects from DMSO exposure, the final concentration of DMSO was not higher than 0.3% (v/v).
Upon conclusion of compound testing and successful washout, a 1.0 μM Diazepam was tested and used for comparative activity on the two GABAAR subtypes.
Other concentrations of the test compound may also be tested following the same protocol.
Results are expressed as mean±SEM.

[2] = target: T2, GABAA α1 receptors (α1β2γ2) (Homo sapiens, UniProt P14867+P18507); assay: GABA-gated Cl- current in Xenopus oocytes expressing GABAA α1β2γ2 (TEVC), off-target activity; assay type: cell-based; conditions: concentration response 0.01-100 μM; FIGS. 1(A)-(D)
T2 construct: expressed in transfected cells; host or cells: Xenopus laevis oocytes injected with cDNAs
T2 sequence (P14867 28-456): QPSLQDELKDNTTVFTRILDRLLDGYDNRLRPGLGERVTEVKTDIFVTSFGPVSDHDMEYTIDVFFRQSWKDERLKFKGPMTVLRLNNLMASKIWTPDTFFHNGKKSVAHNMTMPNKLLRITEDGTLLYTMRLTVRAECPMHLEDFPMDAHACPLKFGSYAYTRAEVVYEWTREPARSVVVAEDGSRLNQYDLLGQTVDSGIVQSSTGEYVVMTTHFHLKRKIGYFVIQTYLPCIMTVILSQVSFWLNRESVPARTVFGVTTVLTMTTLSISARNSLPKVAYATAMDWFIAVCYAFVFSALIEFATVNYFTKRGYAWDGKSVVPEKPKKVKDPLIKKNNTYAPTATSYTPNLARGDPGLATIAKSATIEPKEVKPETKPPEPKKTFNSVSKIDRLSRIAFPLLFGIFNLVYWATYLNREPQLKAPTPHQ
T2 sequence (P47870 25-512 partner limits assumed): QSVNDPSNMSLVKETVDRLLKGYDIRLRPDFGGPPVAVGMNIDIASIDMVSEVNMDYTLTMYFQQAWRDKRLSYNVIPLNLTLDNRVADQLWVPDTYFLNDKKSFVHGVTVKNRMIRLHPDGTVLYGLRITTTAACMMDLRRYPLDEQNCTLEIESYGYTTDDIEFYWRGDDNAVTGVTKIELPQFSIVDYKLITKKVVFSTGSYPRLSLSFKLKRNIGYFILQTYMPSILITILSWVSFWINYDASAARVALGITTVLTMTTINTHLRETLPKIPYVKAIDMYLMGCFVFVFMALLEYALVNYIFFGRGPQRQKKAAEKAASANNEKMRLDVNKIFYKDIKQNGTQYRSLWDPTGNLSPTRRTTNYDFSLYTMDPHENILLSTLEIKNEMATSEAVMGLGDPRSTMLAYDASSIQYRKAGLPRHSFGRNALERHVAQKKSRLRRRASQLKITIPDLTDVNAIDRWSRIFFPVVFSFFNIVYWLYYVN
T2 sequence (P18507 40-467 limits assumed): T1 sequence (P18507 40-467 limits assumed)
Text: as §1
Xenopus oocytes were isolated according to previously published procedures (see, e.g., Goldin et al. Methods Enzymol. 207:266-279 (1992)). The isolated Xenopus oocytes were injected with GABAAR cDNAs (1:1:1 ratio for a total volume of 1 ng of α1βγ2 or α5β3γ2) cloned into mammalian expression vectors. In particular, α1, β2, γ2 were cloned into pcDNA3.1. and α5 and β3 were cloned into pcDNA3.1 myc-His. Vectors were verified by partial sequencing (DNA Core Facility, University of Southern California, USA). After injection, oocytes were stored in incubation medium (Modified Barth's Saline (MBS) supplemented with 2 mM sodium pyruvate, 0.5 mM theophylline and 50 mg/L gentamycin), in petri dishes (VWR, San Dimas, Calif.). All solutions were sterilized by passage through 0.22 μM filters. […] Oocytes were used in experiments for up to 5 days after injection.
A high-throughput two-electrode voltage clamp (TEVC) system (OpusXpress A6000; Molecular Devices, Union City, Calif.), which automates the impalement of oocytes, fluid delivery and current recording from 8 oocytes in parallel, was used to carry out all electrophysiological recordings.
Xenopus Oocytes expressing GABAA-R α5β3γ2 or α1β2γ2 subtype, as prepared in section (A) above, were placed in 8 chambers of OpusXpress and perfused by MBS at 3 mL/min. Glass electrodes back-filled with 3 M KCl (0.5-3 megaohms) were used. Membrane potential of oocytes was voltage-clamped at −60 mV. Oocytes with holding current larger than 0.5 μA were discarded.
Data for each experimental point were obtained from 4 or more Xenopus oocytes and from at least two different frogs. The n refers to the number of Xenopus oocytes tested. Results are expressed as mean±SEM. […] Prism (GraphPAD Software, San Diego, Calif.) and Excel were used to perform curve fitting and statistical analyses.

Row | Compound | positive allosteric modulation of GABA at GABAA α5 receptors [1] | activation at 1 µM [1] | positive allosteric modulation at GABAA α1 receptors [2]
1 | COC(=O)c1coc(-c2c(-c3ccccc3)cnnc2-c2cccc(Cl)c2)n1 [Compound 27] | strong positive allosteric modulation | 30.5% | markedly reduced positive allosteric modulation
2 | COC(=O)c1coc(-c2c(-c3ccccc3)cnnc2-c2cccc(OC)c2)n1 [Compound 29] | strong positive allosteric modulation | 12.3% | markedly reduced positive allosteric modulation
